Measured values as given in BindingDB's records for doi:10.1016/0960-894X(95)00507-P (Eli Lilly, 1995).
pIC50: −log10 of the molar value.

Target: T1, Dimer of Gag-Pol polyprotein [489-587] (Human immunodeficiency virus 1, UniProt P12497)
T1 construct: 489-587
Experiment: Protease Inhibition Assay
Description: In the presence of HIV-l protease, the substrate is rapidly cleaved into two parts. The biotinylated amino terminal fragment binds to the avidin Pandex beads while the FITC-containing carboxy1 terminal fragment is removed through the membrane.

SMILES	pIC50	pIC50 (pH 5.5, 22 °C)
CC(C)[C@@H]1SCC[C@@H]1OC(=O)N[C@@H](Cc1ccccc1)[C@H](O)CN1C[C@H]2CCS[C@H]2CC1C(=O)NC(C)(C)C (some centres not stated) [hydroxyethylene isostere]	8.59	–
CC(C)[C@@H]1[C@H](OC(=O)N[C@@H](Cc2ccccc2)[C@H](O)CN2C[C@H]3CCCC[C@H]3CC2C(=O)NC(C)(C)C)CCS1(=O)=O (stereo partly drawn) [(2R,3R)-1,1-dioxo-2-(propan-2-yl)--thiolan-3-yl N-[(2S,3R)-4-[(4aS,8aS)-3-(tert-butylcarbamoyl)-decahydroisoquinolin-2-yl]-3-hydroxy-1-phenylbutan-2-yl]carbamate]	8.37	–
C[C@@H]1[C@H](OC(=O)N[C@@H](Cc2ccccc2)[C@H](O)CN2C[C@H]3CCCC[C@H]3CC2C(=O)NC(C)(C)C)CCS1(=O)=O (some centres not stated) [hydroxyethylene isostere]	–	8.00
C[C@H]1OCC[C@H]1OC(=O)N[C@@H](CSc1ccccc1)[C@H](O)CN1C[C@H]2CCS[C@H]2CC1C(=O)NC(C)(C)C (some centres not stated) [hydroxyethylene isostere]	–	8.52
CC(C)[C@H]1[C@@H](OC(=O)N[C@@H](Cc2ccccc2)[C@H](O)CN2C[C@H]3CCS[C@H]3CC2C(=O)NC(C)(C)C)CCS1(=O)=O (some centres not stated) [hydroxyethylene isostere]	8.59	–
C[C@@H]1OCC[C@@H]1OC(=O)N[C@@H](CSc1ccccc1)[C@H](O)CN1C[C@H]2CCS[C@H]2CC1C(=O)NC(C)(C)C (stereo partly drawn) [(2S,3S)-2-methyloxolan-3-yl N-[(2R,3R)-4-[(3aR,7aS)-6-(tert-butylcarbamoyl)-octahydrothieno[3,2-c]pyridin-5-yl]-3-hydroxy-1-(phenylsulfanyl)butan-2-yl]carbamate]	–	9.55
C[C@H]1[C@@H](OC(=O)N[C@@H](CSc2ccccc2)[C@H](O)CN2C[C@H]3CCS[C@H]3CC2C(=O)NC(C)(C)C)CCS1(=O)=O (some centres not stated) [hydroxyethylene isostere]	–	9.40
CC(C)(C)NC(=O)C1C[C@@H]2SCC[C@@H]2CN1C[C@@H](O)[C@H](CSc1ccccc1)NC(=O)O[C@@H]1CCS(=O)(=O)C1 (some centres not stated) [hydroxyethylene isostere]	–	8.70
C[C@H]1[C@H](OC(=O)N[C@@H](CSc2ccccc2)[C@H](O)CN2C[C@H]3CCS[C@H]3CC2C(=O)NC(C)(C)C)CCS1(=O)=O (some centres not stated) [hydroxyethylene isostere]	–	8.85
CC(C)[C@H]1[C@@H](OC(=O)N[C@@H](CSc2ccccc2)[C@H](O)CN2C[C@H]3CCS[C@H]3CC2C(=O)NC(C)(C)C)CCS1(=O)=O (stereo partly drawn) [(2S,3S)-1,1-dioxo-2-(propan-2-yl)--thiolan-3-yl N-[(2R,3R)-4-[(3aR,7aS)-6-(tert-butylcarbamoyl)-octahydrothieno[3,2-c]pyridin-5-yl]-3-hydroxy-1-(phenylsulfanyl)butan-2-yl]carbamate]	9.02	–
CC(C)(C)NC(=O)C1C[C@@H]2SCC[C@@H]2CN1C[C@@H](O)[C@H](CSc1ccccc1)NC(=O)O[C@H]1CCS(=O)(=O)C1 (some centres not stated) [hydroxyethylene isostere]	–	8.77
CC(C)[C@@H]1[C@H](OC(=O)N[C@@H](CSc2ccccc2)[C@H](O)CN2C[C@H]3CCS[C@H]3CC2C(=O)NC(C)(C)C)CCS1(=O)=O (some centres not stated) [hydroxyethylene isostere]	9.38	–
CC(C)[C@H]1SCC[C@H]1OC(=O)N[C@@H](Cc1ccccc1)[C@H](O)CN1C[C@H]2CCS[C@H]2CC1C(=O)NC(C)(C)C (stereo partly drawn) [(2R,3R)-2-(propan-2-yl)thiolan-3-yl N-[(2S,3R)-4-[(3aR,7aS)-6-(tert-butylcarbamoyl)-octahydrothieno[3,2-c]pyridin-5-yl]-3-hydroxy-1-phenylbutan-2-yl]carbamate]	9.59	–
CC(C)[C@@H]1[C@H](OC(=O)N[C@@H](Cc2ccccc2)[C@H](O)CN2C[C@H]3CCS[C@H]3CC2C(=O)NC(C)(C)C)CCS1(=O)=O (some centres not stated) [hydroxyethylene isostere]	8.89	–
C[C@@H]1[C@@H](OC(=O)N[C@@H](CSc2ccccc2)[C@H](O)CN2C[C@H]3CCS[C@H]3CC2C(=O)NC(C)(C)C)CCS1(=O)=O (some centres not stated) [hydroxyethylene isostere]	–	8.28
C[C@@H]1[C@H](OC(=O)N[C@@H](CSc2ccccc2)[C@H](O)CN2C[C@H]3CCS[C@H]3CC2C(=O)NC(C)(C)C)CCS1(=O)=O (some centres not stated) [hydroxyethylene isostere]	–	9.12
CC(C)[C@H]1[C@@H](OC(=O)N[C@@H](Cc2ccccc2)[C@H](O)CN2C[C@H]3CCCC[C@H]3CC2C(=O)NC(C)(C)C)CCS1(=O)=O (some centres not stated) [hydroxyethylene isostere]	–	8.09
